Counter-ions that a name gives are not always drawn. Where no end group is shown, it is not given here.
How the values were obtained:
MG-63 cells = test: Collagen-I immunofluorescence in MG-63 cells treated with iron chelator; format: cell-based, human; conditions: 48 hours
Procedure: For microscopy images, cells were cultured in a 24-well plate and incubated with medium supplemented with the indicated concentrations of the treating entity (e.g., peptides or DFO) at 37° C. under 5% CO2. Cells were then washed additional three times with cold phosphate-buffered saline (PBS), following a 20 minute fixation in a 4% paraformaldehyde (PFA) in PBS and extensively washed three times with PBS to remove the PFA, followed by a 20 minute wash with blocking and penetration solution (PBS with 0.1% Triton X-100 and 2% BSA). Fixed cells were incubated with antibodies for 1 hour at 25° C., washed, and developed together with fluorescence-tagged secondary antibodies (Alexa 488 and 647, Abcam). Cell nuclei were stained with 1 mg/mL 4′,6-diamidino-2-phenylindole (DAPI Staining Solution ab228549, Abcam). Images were taken using a ZEISS LSM 900 in confocal mode, using Zen 3.1. Fluorescence readouts were obtained at ex/em of 358/461, 495/519 nm, and 652/668 nm for blue, green, and red, respectively.
The present inventors have incubated MG-63 cells with deferoxamine mesylate (DFO), an iron chelator, to explore the possibility of enhancing Collagen-I levels in these cells.

NIH/3T3 cell line [1] = test: Cell confluence / number of cells per image in NIH/3T3 cells; format: cell-based, mouse; conditions: 48 hours; for toxicity suggested by number of cells: 5-0.02 μM
Procedure: (§1) Embryonic mouse fibroblast NIH/3T3 cell line (ATCC) were seeded at a concentration of 50*10^3 cells/well on 96 well glass bottom plate (P96-1.5H-N, Cellvis) for the immunofluorescence experiment and on cell culture microplate, 96 well, PS, F-Bottom (655090, greiner) for the viability experiment. The cells were cultured with Dulbecco's modified Eagle's medium (DMEM) supplemented with 10% fetal calf serum, 1% Penicillin-Streptomycin solution and 1% L-glutamine (All purchased from Rhenium). At 24 hours post seeding, cells were treated for another 48 hours by replacing them with the cell medium supplemented with a serial dilution (5-0.02 μM, factor dilution of 2) of the ML228, Daprodustat, Enarodustat, Molidustat, Vadadustat or Roxadustat molecules dissolved in DMSO. The final DMSO concentration in the cell medium was 0.01%. Cells were maintained in an incubator at 37° C. in a humidified atmosphere containing 5% CO2.
Image acquisition and quantification were performed by Incucyte SX5 (Sartorius) using software version 2022B Rev2. A standard scan was done for 9 images per well using 20× objective, 2 optical modules (green at excitation/emission of 453-485 nm/494-533 nm in 300 msec acquisition time, and near-IR at excitation/emission of 648-674 nm/685-756 nm in 400 msec acquisition time, including Phase channel) following immunofluorescence protocol. For the image analysis, 2-6 replicates per condition were used. Using the Basic Analyzer mode, “Phase Object Confluence (%)” was acquired using the Phase channel. This measurement is the percentage of the image area occupied by cells. “Total Collagen-I Integrated Intensity Per Image (GCU×μm^2/Image)” was acquired using the green optical module. GCU stands for Green calibrated Unit, while this measurement is the total sum of the Collagen-I objects' fluorescent intensity in the image. “#Cells (Per image)” was acquired by the near-IR optical module. This measurement was calculated by counting the number of nuclei per image.
Multiple comparisons were performed by ordinary one-way ANOVA followed by Dunnett's post-hoc statistical hypothesis for comparing each condition mean to the control mean. Statistical analysis was done using GraphPad Prism version 10.0.0 for Windows, GraphPad Software, Boston, Massachusetts USA, worldwideweb(dot)graphpad(dot)com. For statistical analysis, significance was set as (*) p≤0.05; (**) p≤0.01; (***) p≤0.001; (****) p≤0.0001 and (ns; not significant) p>0.05.

NIH/3T3 cell line [2] = test: Collagen type 1 immunofluorescence in NIH/3T3 cells (Incucyte); format: cell-based, mouse; conditions: 48 hours; for concentrations with significant increase of collagen type 1 normalized to number of cells vs untreated cells: serial dilution 5-0.02 μM, one-way ANOVA
Procedure: as §1
At 48 hours post treatment with either Daprodustat, Enarodustat, Molidustat, Vadadustat or Roxadustat, cells were fixed for 10 minutes together with their media with 8% paraformaldehyde (PFA, Electron Microscopy Sciences) dissolved in phosphate-buffered saline (PBS, Invitrogen) to a final concentration of 4% PFA, without any wash to avoid cells detachment from the glass. Cells were briefly washed four times with ice-cold PBS to remove the PFA and kept overnight at 4° C. The following day, a blocking solution which contains 1.5% Bovine Serum Albumin (Sigma Aldrich) dissolved in PBS was applied for 30 minutes, followed by an overnight incubation at 4° C. with recombinant rabbit anti-mouse Collagen-I 1° antibody (primary Ab) [EPR24331-53] (ab270993, Abcam), dissolved in the blocking solution (1:1000 dilution). The following day, cells were washed for 3 times with PBS (5 minutes each), followed by immunostaining with goat anti-rabbit IgG H&L (Alexa Fluor® 488) 2° antibody (secondary Ab) (ab150077, Abcam) dissolved in blocking solution (1:1000 dilution). Cells were washed again for 3 times with PBS (5 minutes each), stained for 30 minutes with DRAQ5™ (ab108410, Abcam) for nuclei staining dissolved in PBS (1:1000 dilution), and washed once again with PBS. For the ML228 experiment, cells were washed with PBS before applying 4% PFA dissolved in PBS. Then, fixed cells were additionally permeabilized with 0.2% Triton™ X-100 (Merck) dissolved in PBS, additionally stained with Phalloidin-Atto 594 (51927, Sigma Aldrich) for F-Actin staining for 1 hour (1:250 dilution) together with the aforementioned secondary antibody, followed by 10 minutes incubation with DAPI staining solution (ab228549, Abcam) for nuclei staining dissolved in PBS (1:1000 dilution).
Images were taken using a ZEISS LSM 900 in wide-field or in the LSM confocal detection mode (ML228 experiment), using Zen 3.1. Fluorescence readouts were obtained at excitation/emission: 353/465 nm (DAPI), 493/517 nm (Collagen-I), 590/618 (F-Actin) and 647/683 nm (DRAQ5) using a Plan-Apochromat 20×/0.8 M27 objective.
Image acquisition and quantification were performed by Incucyte SX5 (Sartorius) using software version 2022B Rev2. A standard scan was done for 9 images per well using 20× objective, 2 optical modules (green at excitation/emission of 453-485 nm/494-533 nm in 300 msec acquisition time, and near-IR at excitation/emission of 648-674 nm/685-756 nm in 400 msec acquisition time, including Phase channel) following immunofluorescence protocol. For the image analysis, 2-6 replicates per condition were used. Using the Basic Analyzer mode, “Phase Object Confluence (%)” was acquired using the Phase channel. This measurement is the percentage of the image area occupied by cells. “Total Collagen-I Integrated Intensity Per Image (GCU×μm^2/Image)” was acquired using the green optical module. GCU stands for Green calibrated Unit, while this measurement is the total sum of the Collagen-I objects' fluorescent intensity in the image. “#Cells (Per image)” was acquired by the near-IR optical module. […]

[3] = target: T1, PHD2/EGLN1 (HIF-prolyl hydroxylase 2) (human, UniProt Q9GZT9 181-426); test: fluorescence polarization; PHD protein titrated into 200 nM FITC-labeled peptide; single site fit
T1 construct: The protein was expressed as a cleavable GST fusion and the eluate of the GST column was used; also called PHD enzyme; PHD protein
Procedure: Fluorescence polarization (FP) assay—Fluorescence Polarization (FP) measurements were performed on samples arrayed in a 96-well plate using Biotek HybridH1 reader equipped with a polarized optic system. Binding assay was evaluated by adding variable concentrations of PHD protein into 200 nM of FITC-labeled peptides. Experimental polarization data were fitted using GraphPad Prism9 into a single site binding model, with error bars representing standard deviation.

T1 sequence (Q9GZT9 other isoform, or with tags, fused parts or gaps limits assumed): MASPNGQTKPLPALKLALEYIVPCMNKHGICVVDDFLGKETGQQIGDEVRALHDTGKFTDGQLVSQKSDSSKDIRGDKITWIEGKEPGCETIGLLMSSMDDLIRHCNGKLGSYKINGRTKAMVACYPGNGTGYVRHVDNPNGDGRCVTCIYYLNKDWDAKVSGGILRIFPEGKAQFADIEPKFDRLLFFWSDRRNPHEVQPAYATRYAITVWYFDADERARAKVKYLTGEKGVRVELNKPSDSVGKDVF

| Molecule | toxicity suggested by number of cells (NIH/3T3 cell line [1]) | number of cells compared to untreated cells (NIH/3T3 cell line [1]; serial dilution 5-0.02 μM) | concentrations with significant increase of collagen type 1 normalized to number of cells vs untreated cells (NIH/3T3 cell line [2]) [µM] | further results |
| --- | --- | --- | --- | --- |
| CC(=O)N(O)CCCCCNC(=O)CCC(=O)N(O)CCCCCNC(=O)CCC(=O)N(O)CCCCCN [DFO, Deferoxamine mesylate] | – | – | – | DFO concentration giving maximal Collagen-I levels (MG-63 cells; normalized to β-tubulin): 10 to 20 µM; Collagen-I production (MG-63 cells; even at low DFO concentrations such as 0.15 μM): increased Collagen-I production |
| O=C(O)CNC(=O)C1C(=O)N(C2CCCCC2)C(=O)N(C2CCCCC2)C1=O [Daprodustat, N-[(1,2-Dicyclohexylhexahydro-2,4,6-trioxo-5-pyrimidinyl)carbonyl]glycine] | no toxicity | no significant difference | 0.31 to 5 | number of cells compared to untreated cells (NIH/3T3 cell line [1]; 0.08 μM Daprodustat, p<0.0001): lower number of cells |
| O=C(O)CNC(=O)c1c(O)cc(CCc2ccccc2)n2ncnc12 [Enarodustat, N-[[7-Hydroxy-5-(2-phenylethyl)[1,2,4]triazolo[1,5-a]pyridin-8-yl]carbonyl]glycine] | no toxicity | no significant difference | 0.31 to 5 | – |
| O=c1c(-n2ccnn2)c[nH]n1-c1cc(N2CCOCC2)ncn1 [Molidustat, 1,2-Dihydro-2-[6-(4-morpholinyl)-4-pyrimidinyl]-4-(1H-1,2,3-triazol-1-yl)-3H-pyrazol-3-one] | toxic effect | significantly lower | 0.63 to 5 | – |
| Cc1nc(C(=O)NCC(=O)O)c(O)c2ccc(Oc3ccccc3)cc12 [Roxadustat, N-[(4-Hydroxy-1-methyl-7-phenoxy-3-isoquinolinyl)carbonyl]glycine] | no toxicity | significantly higher | 0.08 to 5 | – |
| O=C(O)CNC(=O)c1ncc(-c2cccc(Cl)c2)cc1O [Vadadustat, N-[[5-(3-Chlorophenyl)-3-hydroxy-2-pyridinyl]carbonyl]glycine] | no toxicity | significantly higher | – | collagen type 1 expression compared to untreated cells (NIH/3T3 cell line [2]; 0.02-5 μM): significant increase |
| DLDLEALAPYIPADDDFQLR (also: FITC label, position not given here, The FP assay used 200 nM of FITC-labeled peptide; also called HIF1 peptide) [HIF peptide (FITC-labeled)] | – | – | – | Kd [3]: 7 µM |
| ELDLETLAPYIPMDGEDFQL (also: FITC label, position not given here, The FP assay used 200 nM of FITC-labeled peptide; also called EPAS1-derived peptide) [EPAS1 peptide (FITC-labeled)] | – | – | – | Kd [3]: 4 µM |

From US20250171821A1, “HIF-1 ACTIVATORS AND USES THEREOF” (Ramot at Tel-Aviv University Ltd., priority 2022, published 2025)
